These results are taken from patent US11912660B2, “S6K1 protein kinase inhibitors as cancer therapeutics” (Xavier University of Louisiana, priority 2020, dated 2024).

SMILES strings stand for the structures. Where two headings read alike, the source gives them in different places. A value given as a limit tells only on which side of the number the result lay.

Assay [1] concerns HER2 positive breast cancer cell line SKBR3. Kind of assay: MTT assay growth inhibition. It is filed as cell-based. The settings on record: for IC50: Homo sapiens; for growth inhibition: SKBR3, MTT, FIG. 1A. The source says: (§1) Cell viability assays used the methods outlined in an earlier publication: Identification of New Mono/Dihydroxynaphthoquinone as Lead Agents that Inhibit the Growth of Refractive and Triple-negative Breast Cancer Cell lines. Schroeder, R.; Sfondouris, M.; Goyal, N.; Komati, R.; Weerathunga, A.; Gettridge, C.; Stevens, C. L. K.; Jones, F. E.; Sridhar, J. ACS Omega, 2019 Jun 19. 4(6):10610-10619.
(§2) RPS6K1 is known to play a critical role in several cancers including HER2 positive breast cancer, ER positive breast cancer, prostate cancer and small cell lung cancer. To verify whether RPS6K1 inhibitors of the instant disclosure could inhibit growth of these types of cancers, MTT assays were performed using the HER2 positive breast cancer cell line SKBR3, ER positive breast cancer cell line MCF7, and the prostate cancer cell line DU-145. The MTT assay is a colorimetric assay for assessing cell metabolic activity. NAD(P)H-dependent cellular oxidoreductase enzymes may, under defined conditions, reflect the number of viable cells present. These enzymes are capable of reducing the tetrazolium dye MTT 3-(4,5-dimethylthiazol-2-yl)-2,5-diphenyltetrazolium bromide to its insoluble formazan, which has a purple color.
(In general: Tetrazolium assays rely on reduction of a dye to a coloured formazan, in cell work by metabolically active cells.)

The subject of assay [2] is ER positive breast cancer cell line MCF7. Kind of assay: MTT assay growth inhibition. The settings on record: FIG. 1B. It is filed as cell-based.
Source text: as §1, §2

Assay [3] deals with prostate cancer cell line DU-145. Kind of assay: MTT assay growth inhibition. It is filed as cell-based. The settings on record: DU-145, MTT, FIG. 1C.
Source text: as §1, §2

Assay [4] addresses T1, RPS6K1 (Homo sapiens (Human), UniProt P23443). Kind of assay: High-throughput screening and IC50 determination for inhibition of RPS6K1 (FRET based assay by ThermoFisher). It is filed as biochemical. Conditions: dose response curve. The source says:
These three compounds were then subjected to IC50 value determination (dose response curve) using the same FRET based assay by ThermoFisher (Table 5).

Assay [5] deals with T1, RPS6K1. Described as above. The settings on record: table head prints 10 µM; text says 10 μM concentration. It is filed as biochemical.
Where [6] appears, read: SK-BR-3, SKBR3 breast cancer cell line, MTT, read-out: IC50 values of growth inhibition.

T1 sequence (P23443 whole entry): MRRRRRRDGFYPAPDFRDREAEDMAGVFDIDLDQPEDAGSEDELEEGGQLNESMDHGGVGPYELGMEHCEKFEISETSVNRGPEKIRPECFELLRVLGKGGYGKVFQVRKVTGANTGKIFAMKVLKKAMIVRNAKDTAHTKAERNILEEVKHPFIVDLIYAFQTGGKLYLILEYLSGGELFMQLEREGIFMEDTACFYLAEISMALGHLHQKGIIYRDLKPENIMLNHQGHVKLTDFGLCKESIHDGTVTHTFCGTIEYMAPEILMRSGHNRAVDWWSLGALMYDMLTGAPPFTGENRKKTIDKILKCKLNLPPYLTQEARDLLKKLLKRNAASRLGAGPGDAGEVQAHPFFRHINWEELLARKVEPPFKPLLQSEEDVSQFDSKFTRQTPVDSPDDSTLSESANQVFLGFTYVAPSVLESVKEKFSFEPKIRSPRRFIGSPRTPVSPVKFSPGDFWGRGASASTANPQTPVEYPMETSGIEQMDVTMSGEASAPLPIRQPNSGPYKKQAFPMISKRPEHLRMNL

Regarding `Nc1cc(NC(=O)c2ccccc2Br)cc2c1C(=O)NC2=O` [RJ-22], the values for the IC50 (in assay [1] (setting [6]); at RPS6K1 [4]) were 1.9 µM and greater than 2.78 µM, respectively. The “growth inhibition” value in assay [1], in assay [2] and in assay [3] was “excellent growth inhibition” throughout. The “RPS6K1% inhibition at 10 µM compound concentration” value (from here on “RPS6K1% inhibition”) on RPS6K1 [5] is reported as 86%.

As for `Nc1cc(NC(=O)c2ccccc2)cc2c1C(=O)NC2=O` [RJ-19], the IC50 (commonly the midpoint of a concentration-inhibition curve) in assay [1] (setting [6]) turned out to be 3.3 µM; at RPS6K1 [4], 3.48 µM. Moreover, the “growth inhibition” value in assay [1] is on record as “showed inhibition”; in assay [2], “not as effective”. The “RPS6K1% inhibition” value at RPS6K1 [5] is recorded as 71%.

Turning to `Nc1cc(NC(=O)c2cc([N+](=O)[O-])cc([N+](=O)[O-])c2)cc2c1C(=O)NC2=O` [RJ-28], the IC50 in assay [1] (SK-BR-3, read-out: IC50 values of growth inhibition) turned out to be 4.7 µM; on RPS6K1 [4], 2.56 µM. The “growth inhibition” value in assay [1], in assay [2] and in assay [3] was “excellent growth inhibition” each time. Besides, the “RPS6K1% inhibition” value at RPS6K1 [5] is reported as 79%.
